Reference: patent publication US10869931B2, “Polyethylene glycol-modified angiogenesis inhibitor HM-1 and application thereof” (NANJING ANJI BIOLOGICAL TECHNOLOGY CO.,LTD, priority 2016, dated 2020)
Marks after values point to notes of the source that are not given here. Where no end group is shown, it is not given here.

How the values were obtained:
[1] = tested on: Prostate cancer tumor cells; assay: MTT proliferation inhibition, prostate cancer cells; assay type: cell-based, human; parameters: concentration or dose not given beside the values; details: 48 h
Method in brief: (§1)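 Tumour cells plated at 2×10^4 cells/mL, attached overnight, then exposed to dilutions of mPEG-HM-1 for 48 h at 37 °C, 5% CO2. MTT added 4 h, formazan dissolved in DMSO, absorbance 570/630 nm; growth inhibition = 1 − treated/untreated, three independent repeats, mean±SD.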

[2] = tested on: Uterine cancer tumor cells; assay: MTT proliferation inhibition, uterine cancer cells; assay type: cell-based, human; parameters: concentration or dose not given beside the values; details: 48 h
Method in brief: as §1

[3] = in vivo
[4] = tested on: IL-1β production by mouse peritoneal macrophages; assay: IL-1β production by mouse peritoneal macrophages (ELISA); assay type: cell-based; details: 48 h
Method in brief: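 Starch-elicited mouse peritoneal macrophages (2×10^6 cells/mL), adhered 3 h, treated with low, medium and high concentrations of mPEG-HM-1 for 48 h; dexamethasone as positive control. Supernatant IL-1β quantified by sandwich ELISA at OD450.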

[5] = tested on: Head and neck cancer tumor cells; assay: MTT proliferation inhibition, head and neck cancer cells; assay type: cell-based, human; parameters: concentration or dose not given beside the values; details: 48 h
Method in brief: as §1

[6] = tested on: xylene-induced ear swelling in Kunming mice; assay: Xylene-induced ear swelling in mice; assay type: in vivo, mouse; details: for Inhibition rate: ear swelling vs control
Method in brief: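 Kunming mice were dosed once daily for 5 days (aspirin 200 mg/kg as positive control, saline as blank). One hour after the last dose, xylene was applied to the right ear, with the left ear as untreated reference. Ear punches were weighed 2 h later; swelling degree = right − left weight, rate = degree/left weight ×100%.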

Lung cancer tumor cells = assay: MTT proliferation inhibition, lung cancer cells; assay type: cell-based, human; parameters: concentration or dose not given beside the values; details: 48 h
Method in brief: as §1

Brain tumor cells = assay: MTT proliferation inhibition, brain tumor cells; assay type: cell-based, human; parameters: concentration or dose not given beside the values; details: 48 h
Method in brief: as §1

[7] = tested on: Thyroid cancer tumor cells; assay: MTT proliferation inhibition, thyroid cancer cells; assay type: cell-based, human; parameters: concentration or dose not given beside the values; details: 48 h
Method in brief: as §1

mouse spleen lymphocytes = assay: ConA-stimulated mouse spleen lymphocyte proliferation (MTT); assay type: cell-based; details: ConA 5 μg/mL, 48 h
Method in brief: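 Proliferation read by MTT (4 h), DMSO solubilisation and OD 570 nm, 5 replicates, after 48 h culture at 37° C. Cells were erythrocyte-depleted splenocytes at 5×10^6/mL in RPMI 1640 plus 10% calf serum; groups were blank, ConA and dexamethasone 0.02 mg/mL.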

[8] = tested on: Cervical cancer tumor cells; assay: MTT proliferation inhibition, cervical cancer cells; assay type: cell-based, human; parameters: concentration or dose not given beside the values; details: 48 h
Method in brief: as §1

[9] = 5 mg/kg once daily for 5 days, right minus left ear piece weight 2 h after xylene
[10] = 10 mg/kg once daily for 5 days, 2 h after xylene
[11] = 20 mg/kg once daily for 5 days, 2 h after xylene
[12] = 40 mg/kg once daily for 5 days, 2 h after xylene
[13] = 80 mg/kg once daily for 5 days, 2 h after xylene

Substance | rate of growth inhibition [1] [%] | rate of growth inhibition [2] [%] | AUC0-∞ [3] [mg/L/h] | CL [3] [mL/min/kg] | MRT0-∞ [3] [h] | T1/2β (half-life) [3] [h] | IL-1β ([4]; 5 μg/mL) [pg/mL] | Inhibition Rate of IL-1β production ([4]; 5 μg/mL) [%] | IL-1β ([4]; 10 μg/mL) [pg/mL] | IL-1β ([4]; 20 μg/mL) [pg/mL] | Inhibition Rate of IL-1β production ([4]; 20 μg/mL) [%] | rate of growth inhibition [5] [%] | Swelling [6, 11] | Inhibition rate ([6]; 20 mg/kg once daily for 5 days) [%] | rate of growth inhibition (Lung cancer tumor cells) [%] | rate of growth inhibition (Brain tumor cells) [%] | rate of growth inhibition [7] [%] | A570 nm/A630 nm (mouse spleen lymphocytes; 20 μg/mL) | Inhibition Rate of spleen lymphocyte proliferation (mouse spleen lymphocytes; 20 μg/mL) [%] | rate of growth inhibition [8] [%] | other results
mPEG2-NHS5k-Arg-Gly-Ala-Asp-Arg-Ala-Gly-Gly-Gly-Gly-Arg-Gly-Asp ({mPEG2‑NHS 5 kDa}-RGADRAGGGGRGD) [mPEG2-NHS5k-HM-1] | 39.33 ± 12.01 | 55.20 ± 15.63 | 4789.25 ± 12.08 | 0.878 ± 0.187 | 8.02 ± 5.04 | 8.85 ± 0.10 | 763.97 ± 15.46 | 17.51 | 681.45 ± 12.09 | 563.37 ± 13.21 | 39.17 | 37.13 ± 11.32 | 4.31 ± 0.20** mg | 30.23 | 42.83 ± 12.58 | 40.35 ± 10.29 | 36.23 ± 12.15 | 0.4873 ± 0.1126 | 29.62 | 49.15 ± 14.23 | Inhibition Rate of IL-1β production ([4]; 10 μg/mL): 26.42%; Inhibition rate ([6]; 5 mg/kg once daily for 5 days): 10.02%; Swelling [6, 9]: 5.56 ± 0.19 mg; Swelling [6, 10]: 4.94 ± 0.28* mg; Inhibition rate ([6]; 10 mg/kg once daily for 5 days): 20.05%; A570 nm/A630 nm (mouse spleen lymphocytes; 5 μg/mL): 0.6304 ± 0.0983; Inhibition Rate of spleen lymphocyte proliferation (mouse spleen lymphocytes; 5 μg/mL): 8.96%; A570 nm/A630 nm (mouse spleen lymphocytes; 10 μg/mL): 0.5624 ± 0.1098; Inhibition Rate of spleen lymphocyte proliferation (mouse spleen lymphocytes; 10 μg/mL): 18.78%
mPEG-bALD20k-Arg-Gly-Ala-Asp-Arg-Ala-Gly-Gly-Gly-Gly-Arg-Gly-Asp ({mPEG‑bALD 20 kDa}-RGADRAGGGGRGD) [mPEG-bALD20k-HM-1] | 46.90 ± 11.54 | 75.97 ± 22.67 | 5872.56 ± 8.72 | 0.212 ± 0.155 | 18.32 ± 2.99 | 22.94 ± 0.24 |  |  |  | 738.66 ± 12.81 | 19.90 | 45.13 ± 12.38 | 5.03 ± 0.18 mg | 17.13 | 65.31 ± 15.54 | 54.77 ± 13.43 | 49.38 ± 13.20 | 0.6104 ± 0.1005 | 12.02 | 78.57 ± 20.11 | IL-1β ([4]; 40 μg/mL): 640.26 ± 14.28 pg/mL; Inhibition Rate of IL-1β production ([4]; 40 μg/mL): 30.57%; IL-1β ([4]; 80 μg/mL): 487.37 ± 12.06 pg/mL; Inhibition Rate of IL-1β production ([4]; 80 μg/mL): 47.15%; Swelling [6, 12]: 4.64 ± 0.34* mg; Inhibition rate ([6]; 40 mg/kg once daily for 5 days): 23.62%; Swelling [6, 13]: 3.78 ± 0.27** mg; Inhibition rate ([6]; 80 mg/kg once daily for 5 days): 37.76%; A570 nm/A630 nm (mouse spleen lymphocytes; 40 μg/mL): 0.4988 ± 0.1173; Inhibition Rate of spleen lymphocyte proliferation (mouse spleen lymphocytes; 40 μg/mL): 28.10%; A570 nm/A630 nm (mouse spleen lymphocytes; 80 μg/mL): 0.4453 ± 0.1054; Inhibition Rate of spleen lymphocyte proliferation (mouse spleen lymphocytes; 80 μg/mL): 35.82%
mPEG-SC40k-Arg-Gly-Ala-Asp-Arg-Ala-Gly-Gly-Gly-Gly-Arg-Gly-Asp ({mPEG‑SC 40 kDa}-RGADRAGGGGRGD) [mPEG-SC40k-HM-1] | 45.93 ± 12.72 | 70.27 ± 21.37 | 4365.64 ± 11.06 | 0.113 ± 0.0783 | 16.36 ± 10.28 | 42.19 ± 0.32 |  |  |  |  |  | 43.22 ± 10.25 |  |  | 51.32 ± 16.29 | 52.89 ± 15.41 | 50.13 ± 14.21 |  |  | 61.52 ± 15.11 | IL-1β ([4]; 40 μg/mL): 774.07 ± 15.32 pg/mL; Inhibition Rate of IL-1β production ([4]; 40 μg/mL): 17.39%; IL-1β ([4]; 80 μg/mL): 670.72 ± 16.71 pg/mL; Inhibition Rate of IL-1β production ([4]; 80 μg/mL): 28.42%; IL-1β ([4]; 160 μg/mL): 553.22 ± 10.82 pg/mL; Inhibition Rate of IL-1β production ([4]; 160 μg/mL): 40.96%; Swelling [6, 12]: 5.51 ± 0.13 mg; Inhibition rate ([6]; 40 mg/kg once daily for 5 days): 10.27%; Swelling [6, 13]: 4.76 ± 0.72* mg; Inhibition rate ([6]; 80 mg/kg once daily for 5 days): 22.42%; Swelling ([6]; 160 mg/kg once daily for 5 days, 2 h after xylene): 3.87 ± 0.27** mg; Inhibition rate ([6]; 160 mg/kg once daily for 5 days): 37.01%; A570 nm/A630 nm (mouse spleen lymphocytes; 40 μg/mL): 0.6212 ± 0.0972; Inhibition Rate of spleen lymphocyte proliferation (mouse spleen lymphocytes; 40 μg/mL): 9.92%; A570 nm/A630 nm (mouse spleen lymphocytes; 80 μg/mL): 0.5493 ± 0.1056; Inhibition Rate of spleen lymphocyte proliferation (mouse spleen lymphocytes; 80 μg/mL): 20.34%; A570 nm/A630 nm (mouse spleen lymphocytes; 160 μg/mL): 0.4794 ± 0.1214; Inhibition Rate of spleen lymphocyte proliferation (mouse spleen lymphocytes; 160 μg/mL): 30.48%
mPEG-SC5k-Arg-Gly-Ala-Asp-Arg-Ala-Gly-Gly-Gly-Gly-Arg-Gly-Asp ({mPEG‑SC 5 kDa}-RGADRAGGGGRGD) [mPEG-SC5k-HM-1] | 38.37 ± 15.61 | 60.25 ± 16.09 | 4391.72 ± 12.85 | 0.997 ± 0.18 | 7.68 ± 2.97 | 8.31 ± 0.12 | 762.83 ± 15.46 | 18.59 | 678.12 ± 12.09 | 561.18 ± 13.21 | 40.11 | 40.27 ± 11.36 | 4.17 ± 0.19** mg | 32.10 | 45.33 ± 12.67 | 42.18 ± 12.29 | 39.23 ± 13.18 | 0.4954 ± 0.1219 | 28.16 | 51.11 ± 16.20 | Inhibition Rate of IL-1β production ([4]; 10 μg/mL): 27.63%; Inhibition rate ([6]; 5 mg/kg once daily for 5 days): 9.57%; Swelling [6, 9]: 5.55 ± 0.21 mg; Swelling [6, 10]: 4.90 ± 0.35* mg; Inhibition rate ([6]; 10 mg/kg once daily for 5 days): 20.13%; A570 nm/A630 nm (mouse spleen lymphocytes; 5 μg/mL): 0.6253 ± 0.0947; Inhibition Rate of spleen lymphocyte proliferation (mouse spleen lymphocytes; 5 μg/mL): 9.32%; A570 nm/A630 nm (mouse spleen lymphocytes; 10 μg/mL): 0.5480 ± 0.1081; Inhibition Rate of spleen lymphocyte proliferation (mouse spleen lymphocytes; 10 μg/mL): 20.54%
